In ChEMBL document CHEMBL1201862, “PubChem BioAssay data set” (2004):
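Five compound concentrations were applied to cells in 96-well plates for 48 hours; endpoints were derived by simple linear interpolation of the resulting dose-response curve. GI50 = concentration required for 50% inhibition of growth.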 Activity calls are given as the source filed them. Rule as the data show it: active = GI50 up to about 1.1 µM and inactive = higher.

What was measured:
Assay in all cases: NCI-60 cell line screen, 48 h
NCI-H460 = test system: NCI-H460
SK-MEL-28 = test system: SK-MEL-28
MDA-MB-231 = test system: MDA-MB-231
MCF7 = test system: MCF7
ACHN = test system: ACHN
SNB-19 = test system: SNB-19
M14 = test system: M14
SF-539 = test system: SF-539
A549 = test system: A549
786-0 = test system: 786-0
OVCAR-8 = test system: OVCAR-8
DU-145 = test system: DU-145
LOX IMVI = test system: LOX IMVI
CAKI-1 = test system: CAKI-1
SN12C = test system: SN12C
COLO 205 = test system: COLO 205
NCI/ADR-RES = test system: NCI/ADR-RES
HL-60 = test system: HL-60
UACC-257 = test system: UACC-257
Hs-578T = test system: Hs-578T

Compound | GI50 (NCI-H460) | GI50 (SK-MEL-28) | GI50 (MDA-MB-231) | GI50 (MCF7) | GI50 (ACHN) | GI50 (SNB-19) | GI50 (M14) | GI50 (SF-539) | GI50 (A549) | GI50 (786-0) | GI50 (OVCAR-8) | GI50 (DU-145) | GI50 (LOX IMVI) | GI50 (CAKI-1) | GI50 (SN12C) | GI50 (COLO 205) | GI50 (NCI/ADR-RES) | GI50 (HL-60) | GI50 (UACC-257) | GI50 (Hs-578T)
CC(C)(C)C1CCC2(CC1)CCN(CCCN1CCOCC1)CC2 | 39.7 µM (inactive) | 16.9 µM (inactive) | > 100 µM (inactive) | > 100 µM (inactive) | > 73.3 µM (inactive) | > 71.4 µM (inactive) | 12.2 µM (inactive) | 18.7 µM (inactive) | > 49.9 µM (inactive) | 20.2 µM (inactive) | > 81.1 µM (inactive) | > 100 µM (inactive) | 18.9 µM (inactive) | > 34.7 µM (inactive) | > 86.3 µM (inactive) | 16.3 µM (inactive) | > 100 µM (inactive) | 13.1 µM (inactive) | 11.9 µM (inactive) | 35 µM (inactive)
CC1(C)C2C=C(CCN3CCOCC3)CC1C2 (stereo not given) | > 100 µM (inactive) | > 100 µM (inactive) | > 100 µM (inactive) | > 100 µM (inactive) | > 100 µM (inactive) | > 100 µM (inactive) | > 100 µM (inactive) | > 100 µM (inactive) | > 100 µM (inactive) | > 100 µM (inactive) | > 100 µM (inactive) | > 100 µM (inactive) | > 100 µM (inactive) | > 100 µM (inactive) | > 100 µM (inactive) | > 100 µM (inactive) | > 100 µM (inactive) | > 100 µM (inactive) | > 100 µM (inactive) | > 100 µM (inactive)
O=C1CC(c2ccco2)C2(C(=O)NC(=O)NC2=O)C(c2ccco2)C1 (stereo not given) | > 75 µM (inactive) | > 75 µM (inactive) | > 75 µM (inactive) | > 75 µM (inactive) | > 75 µM (inactive) | > 75 µM (inactive) | > 75 µM (inactive) | > 75 µM (inactive) | > 75 µM (inactive) | > 75 µM (inactive) | > 75 µM (inactive) | > 75 µM (inactive) | > 75 µM (inactive) | > 75 µM (inactive) | > 75 µM (inactive) | > 75 µM (inactive) | > 75 µM (inactive) | > 75 µM (inactive) | > 75 µM (inactive) | > 75 µM (inactive)
Cc1c2c(n3c(nc4ccccc43)c1C#N)NCC2 | > 10 µM (inactive) | > 10 µM (inactive) | > 10 µM (inactive) | > 10 µM (inactive) | > 10 µM (inactive) | > 10 µM (inactive) | > 10 µM (inactive) | > 10 µM (inactive) | > 10 µM (inactive) | > 10 µM (inactive) | > 10 µM (inactive) | > 10 µM (inactive) | > 10 µM (inactive) | > 10 µM (inactive) | > 10 µM (inactive) | > 10 µM (inactive) | > 10 µM (inactive) | > 10 µM (inactive) | > 10 µM (inactive) | > 10 µM (inactive)
CNCCCNc1c2ccccc2nc2cccc([N+](=O)[O-])c12 | 0.00047 µM (active) | 0.0109 µM (active) | 0.00158 µM (active) | 0.00143 µM (active) | 0.00251 µM (active) | 0.00769 µM (active) | 0.00433 µM (active) | 0.00634 µM (active) | 0.00187 µM (active) | 0.00323 µM (active) | 0.00372 µM (active) | 0.00378 µM (active) | 0.00604 µM (active) | 0.00753 µM (active) | 0.00561 µM (active) | 0.0015 µM (active) | 0.00861 µM (active) | 0.01 µM (active) | 0.0189 µM (active) | 0.00299 µM (active)
CCCC(c1cc(C(C)(C)C)c(O)cc1C)c1cc(C(C)(C)C)c(O)cc1C | 1.95 µM (inactive) | 3.48 µM (inactive) | 3.56 µM (inactive) | 2.06 µM (inactive) | 2.67 µM (inactive) | 4.99 µM (inactive) | 2.09 µM (inactive) | 2.39 µM (inactive) | 2.99 µM (inactive) | 2.31 µM (inactive) | 4.03 µM (inactive) | 4.05 µM (inactive) | 1.87 µM (inactive) | 4.3 µM (inactive) | 1.94 µM (inactive) | 2.33 µM (inactive) | 3.4 µM (inactive) | 2.27 µM (inactive) | 2.31 µM (inactive) | 2.79 µM (inactive)
C#C[C@]1(O)CC[C@H]2[C@@H]3CCC4=C/C(=N/OC(=O)c5cccc6cc7ccccc7nc56)CC[C@@H]4[C@H]3CC[C@@]21CC | > 100 µM (inactive) | > 100 µM (inactive) | > 100 µM (inactive) | 76 µM (inactive) | > 100 µM (inactive) | > 100 µM (inactive) | > 100 µM (inactive) | > 100 µM (inactive) | > 100 µM (inactive) | > 100 µM (inactive) | > 100 µM (inactive) | > 100 µM (inactive) | > 100 µM (inactive) | > 100 µM (inactive) | > 100 µM (inactive) | 49.7 µM (inactive) | > 100 µM (inactive) | > 100 µM (inactive) | > 100 µM (inactive) | > 100 µM (inactive)
CC(=O)O[C@@H]1C(=O)N(c2ccccc2)[C@@H]1c1cc2ccccc2c2ccccc12 | 31.4 µM (inactive) | 56 µM (inactive) | 20.3 µM (inactive) | 34.2 µM (inactive) | 29.6 µM (inactive) | 73.3 µM (inactive) | 55.3 µM (inactive) | 25.4 µM (inactive) | 21.5 µM (inactive) | 42.2 µM (inactive) | 24.5 µM (inactive) | 40.8 µM (inactive) | 20 µM (inactive) | 5.25 µM (inactive) | 34.4 µM (inactive) | 16.7 µM (inactive) | 33.9 µM (inactive) | 26.4 µM (inactive) | 25.5 µM (inactive) | 27.7 µM (inactive)
Cc1ccc(C)c(COCCOCn2cc(Br)c(N)nc2=O)c1 | > 100 µM (inactive) | > 100 µM (inactive) | > 100 µM (inactive) | > 100 µM (inactive) | > 100 µM (inactive) | > 100 µM (inactive) | > 100 µM (inactive) | > 100 µM (inactive) | > 100 µM (inactive) | > 100 µM (inactive) | > 100 µM (inactive) | > 100 µM (inactive) | > 100 µM (inactive) | > 100 µM (inactive) | > 100 µM (inactive) | > 100 µM (inactive) | > 100 µM (inactive) | 14 µM (inactive) | > 100 µM (inactive) | > 100 µM (inactive)
Cc1cc(=O)oc2cc(OC(=O)N(CCCl)CCCl)ccc12 | > 100 µM (inactive) | > 100 µM (inactive) | > 100 µM (inactive) | > 100 µM (inactive) | > 100 µM (inactive) | > 100 µM (inactive) | > 100 µM (inactive) | > 100 µM (inactive) | > 100 µM (inactive) | > 100 µM (inactive) | > 100 µM (inactive) | > 100 µM (inactive) | 59.8 µM (inactive) | > 100 µM (inactive) | > 100 µM (inactive) | > 100 µM (inactive) | 99.1 µM (inactive) | > 100 µM (inactive) | > 100 µM (inactive) | > 100 µM (inactive)
COc1cc(-c2oc(/C=N/c3ccccc3)c([N+](=O)[O-])c2-c2ccc(O)c(OC)c2)ccc1O | 16.1 µM (inactive) | 19.5 µM (inactive) | 27.5 µM (inactive) | 23.9 µM (inactive) | 16.1 µM (inactive) | 22.4 µM (inactive) | 32.1 µM (inactive) | 17.4 µM (inactive) | 39.2 µM (inactive) | 20.6 µM (inactive) | 17.3 µM (inactive) | 20.1 µM (inactive) | 9.57 µM (inactive) | 21.8 µM (inactive) | 27 µM (inactive) | 20.3 µM (inactive) | 22.8 µM (inactive) | 0.412 µM (active) | 27 µM (inactive) | 39.6 µM (inactive)
O=C(O)CCc1nc2ccccc2[nH]1 [PROCODAZOLE] | > 100 µM (inactive) | > 100 µM (inactive) | > 100 µM (inactive) | > 100 µM (inactive) | > 100 µM (inactive) | > 100 µM (inactive) | > 100 µM (inactive) | > 100 µM (inactive) | > 100 µM (inactive) | > 100 µM (inactive) | > 100 µM (inactive) | > 100 µM (inactive) | > 100 µM (inactive) | > 100 µM (inactive) | > 100 µM (inactive) | > 100 µM (inactive) | > 100 µM (inactive) | > 100 µM (inactive) | > 100 µM (inactive) | > 100 µM (inactive)
OC(CC1CCCCN1)c1ccc2c(c1)oc1ccccc12 (stereo not given) | 43.6 µM (inactive) | 34 µM (inactive) | > 100 µM (inactive) | 83 µM (inactive) | > 100 µM (inactive) | > 100 µM (inactive) | 18.8 µM (inactive) | 46.1 µM (inactive) | > 100 µM (inactive) | > 100 µM (inactive) | 84.1 µM (inactive) | > 100 µM (inactive) | 56 µM (inactive) | 52.8 µM (inactive) | > 100 µM (inactive) | 19.1 µM (inactive) | > 100 µM (inactive) | > 100 µM (inactive) | 31 µM (inactive) | 87.7 µM (inactive)
CN(C)c1ccc(/C=C/C(=O)c2cc(C(C)(C)C)c(O)c(C(C)(C)C)c2)cc1 | 0.82 µM (active) | > 60 µM (inactive) | 2.44 µM (inactive) | 0.469 µM (active) | 1.73 µM (inactive) | 3.73 µM (inactive) | 1.15 µM (inactive) | 0.625 µM (active) | 2.32 µM (inactive) | 1.3 µM (inactive) | 2.93 µM (inactive) | 2 µM (inactive) | 2.06 µM (inactive) | 1.14 µM (inactive) | 3.13 µM (inactive) | 0.348 µM (active) | 0.796 µM (active) | 2.29 µM (inactive) | 0.321 µM (active) | 2.72 µM (inactive)
